The supplement of paper PMC10307832

Compound: Cc1ccc(NC(=O)c2ccc(CN3CCN(C)CC3)cc2)cc1Nc1nccc(-c2cccnc2)n1 [Imatinib] + COc1cc2c(Oc3ccc(NC(=O)C4(C(=O)Nc5ccc(F)cc5)CC4)cc3F)ccnc2cc1OCCCN1CCOCC1 [Foretinib] (partner 0.25 µM)
Assay: relative viability (nuclei count vs DMSO), 5 days (fraction); higher = more cells survive
Summary of the method: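 Nuclei were stained with Hoechst during a one-step fixation (final 0.05% Triton X-100, 1% formaldehyde, 1 ug/ml Hoechst) carried out 5 days after dosing, then counted on 4× images. The cells, lung cancer lines in 1536-well plates, had been dosed by pin tool the day after seeding with one drug alone or a fixed anchor-drug dose plus five library-drug doses (not always all listed) in √10 steps. Relative viability is the nuclei count in treated wells divided by that in vehicle wells, and each value is the median of duplicate plates.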

Cell Line | relative viability (first compound 0.02 µM) | relative viability (first compound 0.2 µM) | relative viability (first compound 0.6325 µM) | relative viability (first compound 2 µM) | relative viability (first compound 0.06325 µM)
201T | 1.21 | 1.06 | 1.04 | 1.12 | –
A-427 | 1.13 | 1 | 0.946 | 1.01 | –
ABC-1 | 0.739 | 0.904 | 1.13 | 0.922 | –
BEN | 0.774 | 0.564 | 0.701 | 0.602 | –
CAL-12T | 1.09 | 1.1 | 1.16 | 1.16 | –
COR-L23 | – | 1.01 | 0.984 | 1.01 | 1
COR-L 105 | 1.2 | – | 0.948 | 1.08 | 1.23
ChaGo-K-1 | 0.921 | 0.916 | 0.916 | 0.958 | 0.936
EBC-1 | 0.114 | 0.109 | 0.0904 | 0.0924 | 0.108
EKVX | – | 0.68 | 0.736 | 0.988 | 0.585
EMC-BAC-2 | 1.05 | 1.09 | 0.973 | 1.02 | 1.12
EPLC-272H | 0.938 | 0.819 | 0.558 | 0.59 | –
H3255 | 0.791 | – | 0.914 | 0.709 | 0.405
HARA | 0.836 | 0.976 | 0.886 | 0.971 | –
HCC-15 | 1.14 | 1.05 | 0.987 | 1.09 | –
HCC-78 | 0.654 | 0.534 | 0.44 | 0.56 | 0.577
HCC-366 | 0.998 | 0.942 | 0.982 | 1.01 | –
HCC-827 | 1.05 | 1.05 | 1.04 | 0.962 | 1.04

Cell Line | relative viability (first compound 0.02 µM) | relative viability (first compound 0.2 µM) | relative viability (first compound 0.6325 µM) | relative viability (first compound 2 µM) | relative viability (first compound 0.06325 µM)
HOP-62 | 1.27 | 1.23 | 0.994 | 1.12 | –
LC-2-ad | 0.926 | 0.886 | 0.819 | 0.982 | 0.676
LCLC-97TM1 | 0.934 | 1.03 | 0.927 | 0.905 | –
LCLC-103H | – | 0.565 | 0.679 | 0.869 | 0.744
LK-2 | 1.18 | 1.65 | 0.83 | 1.32 | 0.908
LOU-NH91 | 0.943 | 0.891 | 0.929 | 0.879 | 0.923
LU99A | 0.772 | 0.894 | 0.857 | 0.772 | 0.879
LXF-289 | 1.01 | 1.14 | 0.848 | 0.95 | 0.914
NCI-H23 | 1.13 | 1.2 | 1.07 | 1.13 | 1.15
NCI-H322M | 1.09 | 1.01 | 0.883 | 0.935 | 1.03
NCI-H358 | 0.685 | 0.726 | 0.619 | 0.648 | 0.519
NCI-H441 | 0.72 | 1.11 | 1.16 | 0.916 | 1.1
NCI-H460 | 1.12 | 1.15 | 0.909 | 1.07 | 0.918
NCI-H520 | 0.616 | 0.64 | 0.757 | 0.903 | 1.2
NCI-H596 | 0.948 | 0.931 | 0.855 | 0.832 | –
NCI-H647 | 1.51 | 1.57 | 1.25 | 1.06 | 1.27
NCI-H650 | 1.07 | 1.03 | 1.17 | 0.977 | 0.78
